Measurements reported in PMC9704104, “Towards safer anti-inflammatory therapy: synthesis of new thymol–pyrazole hybrids as dual COX-2/5-LOX inhibitors” (Journal of Enzyme Inhibition and Medicinal Chemistry, 2022).
“And” between values parts separate entries of the source, which are not always exact repeats. Equal values may be shown once. Read-outs that look alike come from different tables or passages of the source. Marks after values point to notes of the source that are not given here.

Experiments:
[1] = system: formalin-induced rat paw oedema; assay: Formalin-induced paw oedema test (acute inflammation model); format: in vivo; conditions: for % Inhibition of oedema volume, Mean ± SD / inhibition in vivo at 5 mg/kg / Volume of oedema (ml) 4h, Mean ± SD / % inhibition of paw oedema compared with reference drugs (in words): 4 h; for inhibition in vivo at 5 mg/kg: Rattus norvegicus; for inhibition in vivo at 5 mg/kg / Volume of oedema (ml) 4h, Mean ± SD: po; for % inhibition of paw oedema compared with reference drugs (in words): comparison with celecoxib or diclofenac sodium; for % Relative potency (4h) celecoxib / % Relative potency (4h) celecoxib, Mean ± SD: relative to % inhibition of celecoxib at 4 h; for % Relative potency (4h) diclofenac, Mean ± SD / % Relative potency (4h) diclofenac: relative to % inhibition of diclofenac at 4 h
Procedure: Animals Adult female albino rats weighing 150-250 g were used (Experimental Animal Centre in Alexandria University). All animals accessed to food and water ad libitum and were housed in 12 h dark/light cycle in a controlled condition at 23-250C. They were allowed to acclimatize for 1 week prior to experimentation. Procedures involving animals and their care were conducted in conformity with the Guide for the Care and Use of Laboratory Animals published by US National Institute of Health4 (NIH publication No. 83-23, revised) and following the ethical guidelines of Alexandria University on laboratory animals. In all tests, adequate considerations were adopted to reduce pain or discomfort of animals (Approved by AlexU-IACUC) 3. […]
Formalin-induced paw edema test (acute inflammation model):
A solution of freshly prepared formalin 5% was used as a phlogistic agent. A mark was made on the lateral malleolus of the rats’ paws delineating the injection sites. The initial volume of paw was measured by means of digital calibrated Vernier caliper .
After 45 minutes, 40 μl formalin were injected subcutaneously into the sub plantar tissue of the right hind paw of all groups under light ether anesthesia . An equal volume of saline was injected into the left hind paw and served as internal control for the degree of inflammation in the right hind paw. 5, 6 The volume of paw was measured in different treatment groups, 4 h following the formalin injection and the amount of increase in paw volume (edema volume) was calculated by subtracting the volumes before and 4 h after the injection of formalin. Edema was expressed as an increase in the volume of paw, and the percentage of edema inhibition (or percent protection against inflammation) for each rat and each group was calculated according to the following equation: […]
Where Vt is the mean volume of edema at specific time interval (4 h) and Vo is the mean volume of edema […]
Relative potency of the tested compounds was expressed as % inhibition of edema for the tested compounds

gastric mucosa = assay: In vivo gastric ulcerogenic activity (gross examination of gastric mucosa); conditions: fasted rats, 60 mg/kg orally, six hours after treatment
COX-1 = target: T1, COX-1 (Ovis aries, UniProt P05979); assay: In vitro COX-1 inhibitory assay (Cayman colorimetric COX (ovine) inhibitor screening assay kit); format: biochemical; conditions: mean of three replicates ± SD
T1 construct: purchased Cayman chemicals 560131
T1 sequence (P05979 25-600): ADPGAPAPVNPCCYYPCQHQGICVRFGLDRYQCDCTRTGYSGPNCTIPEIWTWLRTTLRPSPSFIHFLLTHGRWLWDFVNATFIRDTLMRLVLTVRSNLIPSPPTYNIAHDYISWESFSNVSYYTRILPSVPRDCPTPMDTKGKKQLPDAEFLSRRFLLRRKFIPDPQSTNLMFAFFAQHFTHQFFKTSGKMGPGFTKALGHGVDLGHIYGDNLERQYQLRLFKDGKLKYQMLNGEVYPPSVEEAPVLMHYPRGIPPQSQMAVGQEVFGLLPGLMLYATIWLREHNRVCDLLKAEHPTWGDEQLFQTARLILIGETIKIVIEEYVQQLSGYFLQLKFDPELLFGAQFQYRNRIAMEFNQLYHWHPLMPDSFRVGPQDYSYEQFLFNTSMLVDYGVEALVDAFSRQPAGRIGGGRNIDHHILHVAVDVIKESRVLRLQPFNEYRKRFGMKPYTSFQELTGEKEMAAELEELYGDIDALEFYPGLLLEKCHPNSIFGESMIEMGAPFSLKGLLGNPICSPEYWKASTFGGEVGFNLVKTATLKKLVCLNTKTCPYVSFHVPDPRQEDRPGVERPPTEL
Procedure: (Page: S20, Supplementary file).
Anti-inflammatory activity
In vitro COX-1 and COX-2 inhibitory assay […]
supplied by Cayman chemicals, Ann Arbor, MI, USA according to reported method 1. The colorimetric COX inhibitor screening assay utilizes the peroxidase component of cyclooxygenase. The peroxidase activity was assayed calorimetrically by monitoring the appearance of oxidized N,N,N',N'-tetramethyl-1,4-phenylenediamine (TMPD) at 590nm. The appearance of reagent was carried out following the instructions […]
The half- maximal inhibitor concentrations (IC50µM) were determined and the selectivity index (SI) values were calculated as IC50 (COX-1)/IC50 (COX-2).
1) Background wells- 160 µL of assay buffer and 10 µL of heme were added to background wells.
2) The 100% Initial activity wells- 150 µL of assay buffer, 10 µL of heme and 10 µL of enzyme (COX-1 or COX-2) were added.
3) Inhibitor well- 150 µL of assay buffer, 10 µL of heme and 10 µL of enzyme were added.
4) 10 µL of inhibitor (3 concentrations) in DMSO was added to the inhibitor wells to yield a final […]
5) 10 µL of solvent (DMSO) was added to the 100% Initial activity wells and background wells.
7) 20 µL of colorimetric substrate solution (TMPD) was added to all wells.
8) 20 µL of arachidonic acid was added to all wells to yield a final concentration of 100 µM.
10) The absorbance was measured at 590 nm using a plate reader.
The calculations were carried out in the following manner:
1) The average absorbance of all samples was determined.
2) The absorbance of background wells was subtracted from absorbance of the 100% Initial activity […]
3) Percent inhibition = (100% Initial activity – Inhibitor wells/ 100% Initial activity)∗ 100 […]
Place the 96-well plate on a shaker for at least five minutes. […]

5-LOX = assay: In vitro 5-LOX inhibitory assay (Abnova 5-LOX inhibitor screening assay kit); format: biochemical
Source text: The newly synthesised compounds were screened for their ability to inhibit 5-LOX enzymes. […] (Page: S21, Supplementary file). […]
In vitro LOX inhibitory assay
Inhibitor Screening Assay Kit detects and measures the hydroperoxides produced in the lipoxygenation reaction using a purified LOX. The detection reaction is equally sensitive to hydroperoxides at various positions within the fatty acid and will work with fatty acids of any carbon length. It is thus a general detection method for 5-LOX and can be used to screen libraries of compounds for those which inhibit 5 -LOX enzymes.
1) Blank Wells- add 100 µL of assay buffer to at least two wells.
2) Positive Control Wells- Lipoxygenase (15-LO standard) add 90 µL 15-LO and 10 µL of assay buffer […]
3) 100% Initial Activity Wells- add 90 µL 15-LO and 10 µL of solvent (DMSO) (the same solvent to dissolve the inhibitor) to two wells. The 100% initial activity wells should result in approximately 10 […]
4) Inhibitor Wells- add 90 µL of sample and I10 µL of inhibitor to two wells.
5) Initiate the reaction by adding 10 µL of substrate (either arachidonic acid or linoleic acid) to all the wells. Place the 96-well plate on a shaker for at least five minutes.
6) Add 100 µL of chromogen to each well to stop enzyme catalysis and develop the reaction. Cover with a plate cover and place the 96-well plate on a shaker for at least five minutes.
7) Remove the cover and read the absorbance at 490-500 nm using a plate reader.
Inhibitors were dissolved in DMSO. The inhibitors were added to the assay in a final volume of 10 µL before initiating with substrate. Three concentrations were prepared (25, 50 and 100 µM) to determine the concentration produced 50% enzyme inhibition.
2) The absorbance of blank wells was subtracted from absorbance of the 100% Initial activity and the […]

[2] = group mean ± SD, 5 mg/kg orally
[3] = 4 h minus 0, group mean ± SD, 5 mg/kg orally
[4] = read-out: % Inhibition of oedema volume, 4 h, individual rats 1-3, 5 mg/kg orally
[5] = read-out: % Inhibition of oedema volume, Mean ± SD, 4 h, group mean ± SD, 5 mg/kg orally
[6] = group mean ± SD, 5 mg/kg orally, read-out: % Inhibition of oedema volume, Mean ± SD
[7] = individual rats 1-3, 5 mg/kg orally, read-out: % Inhibition of oedema volume
[8] = individual rats 1-3, 5 mg/kg orally, 5 mg/kg

Row | Structure (SMILES) | % Inhibition of oedema volume, Mean ± SD [1, 2] | Abs diff., Mean ± SD [1, 3] | inhibition in vivo at 5 mg/kg [1, 4] | inhibition in vivo at 5 mg/kg [1, 5] | Volume of oedema (ml) 4h, Mean ± SD ([1]; 5 mg/kg) | Gross appearance of gastric mucosa (ulcerogenic potential) (gastric mucosa) | IC50 (COX-1) | IC50 (5-LOX) | % inhibition of paw oedema compared with reference drugs (in words) ([1]; 5 mg/kg orally) | inhibition in vivo at 5 mg/kg [1, 6] | inhibition in vivo at 5 mg/kg [1, 7] | % Relative potency (4h) celecoxib ([1]; individual rats 1-3) | % Relative potency (4h) diclofenac, Mean ± SD ([1]; group mean ± SD) | % Relative potency (4h) diclofenac ([1]; individual rats 1-3) | Gross appearance of gastric mucosa (ulcerogenic potential) (gastric mucosa; 60 mg/kg) | % Relative potency (4h) celecoxib, Mean ± SD ([1]; group mean ± SD) | Volume of oedema (ml) 0 [1, 8] | Abs diff. ([1]; 4 h minus 0, individual rats 1-3, 5 mg/kg orally, 5 mg/kg)
1 | Cc1ccc(-c2cc(C(F)(F)F)nn2-c2ccc(S(N)(=O)=O)cc2)cc1 [Celecoxib, reference compound] | 36.33 ± 2.05% | 1.38^a ± 0.06 | 35.2% | 36.4% | 5.69^a ± 0.02 ml | no ulceration | – | – | – | – | – | – | – | – | – | – | – | –
2 | Cc1ccc(C(C)C)c(O)c1C=NNC(=O)c1cc(-c2ccccc2)n[nH]1 [Compound 4a, N'-(2-Hydroxy-3-isopropyl-6-methylbenzylidene)-3-phenyl-1H-pyrazole-5-carbohydrazide] | – | – | – | – | – | – | 10.3 ± 0.1 µM | 3.05 ± 0.067 µM | double % inhibition exhibited by Celecoxib | 81.9% | 84.2% | 239.70% and 192.90% and 244.0% | 156.4 ± 20.52% | 178.10% and 137.30% and 153.80% | No gross ulceration | – | – | –
3 | Cc1ccc(C(C)C)c(O)c1C=NNC(=O)c1cc(-c2ccc(Br)cc2)n[nH]1 [Compound 4b, 3-(4-Bromophenyl)-N'-(2-hydroxy-3-isopropyl-6-methylbenzylidene)-1H-pyrazole-5-carbohydrazide] | – | – | – | – | – | – | 11.8 ± 0.15 µM | 1.84 ± 0.06 µM | – | – | 55.9% | 159.0% and 136.90% and 150.70% | 103.5 ± 12.68% | 118.10% and 97.50% and 95.0% | No gross ulceration | 148.9 ± 11.16% | 5.15 mL | –
4 | Cc1ccc(C(C)C)c(O)c1C=NNC(=O)c1cc(-c2ccc(Br)cc2)n(-c2ccccc2)n1 [Compound 8e, 5-(4-Bromophenyl)-N'-(2-hydroxy-3-isopropyl-6-methylbenzylidene)-1-phenyl-1H-pyrazole-3-carbohydrazide] | – | – | – | – | – | – | 11.24 ± 0.075 µM | 2.56 ± 0.025 µM | – | – | 59.5% | 169.20% and 127.40% and 150.70% | 103.8 ± 19.09% | 125.70% and 90.70% and 95.0% | – | 149.1 ± 20.95% | – | –
5 | COc1ccc(-c2cc(C(=O)NN=Cc3c(C)ccc(C(C)C)c3O)nn2-c2ccccc2)cc1 [Compound 8f, 5-(4-Methoxyphenyl)-N'-(2-hydroxy-3-isopropyl-6-methylbenzylidene)-1-phenyl-1H-pyrazole-3-carbohydrazide] | – | – | – | – | – | – | 11.2 ± 0.57 µM | 2.91 ± 0.064 µM | slightly less % inhibition than that of Diclofenac sodium | 46.3 ± 3.67% | 50.5% | 143.60% and 115.50% and 124.0% | 89.03 ± 15.43% | 106.70% and 82.20% and 78.20% | – | 127.7 ± 14.41% | 5.15 mL | 1.20
6 | O=C(O)Cc1ccccc1Nc1c(Cl)cccc1Cl [Diclofenac sodium, reference compound] | 52.53^b ± 4.59% | 1.03^ab ± 0.12 | 47.3% | 52.4% | 5.30^ab ± 0.09 ml | no ulceration | – | – | – | – | – | – | – | – | – | – | – | –
